Data reported in a melting point compilation (Tetko et al.; mined from patent text by program, amines drawn as free bases though some values may be those of a salt).

| SMILES | melting point [°C] |
| --- | --- |
| CN1C(=O)CC[C@]2(C)c3ccc(NC(=O)c4cccc([N+](=O)[O-])c4)cc3CC[C@@H]12 | 240 to 242 |
| CC(C)(C)OC(=O)c1cc(I)ccc1OCc1ccc2ccccc2c1 | 90 |
| CSc1nn2c(N3CCN(Cc4ccccc4)CC3)cc(C)nc2c1S(=O)(=O)c1ccccc1 | 156 to 158 |
| O=C(Nc1ccc(-n2nc(C(F)(F)F)cc2C(F)(F)F)cc1)c1c(F)cccc1F | 127 to 128 |
| CN1CCN(CCCNc2ccc(-n3cc(C(F)(F)F)ccc3=O)c(Cl)c2)CC1 | 129 to 132 |
| FC(F)(F)c1ccccc1-c1nnc(Nc2cccc(SCc3ccccc3-c3ccccc3)c2)s1 | 73 to 75 |
| O=C(C(=O)c1cccc(I)c1)c1cccc(I)c1 | 127 |
| NS(=O)(=O)c1ncccc1OCCF | 122 to 123 |
| N#Cc1cc(-c2ccccc2Cl)c[nH]c1=O | 252 to 254 |
| CC1=N/C(=C\c2c[nH]c3ncccc23)C(=O)N1CCN1CCOCC1 | 235 to 240 |
| CN1Cc2cccnc2C(N2CCN(C(=O)Cc3ccncc3)CC2)c2ccc(Cl)cc21 (configuration not stated) | 83 to 87 |
| Cc1ccc2c(c1)C(CCCCN1CCN(c3cccc(Cl)c3)CC1)C(=O)N2 (configuration not stated) | 122 to 124 |
| COC(=O)c1cccc2nc(SCCCN3CCN(CC(=O)Nc4c(C(C)C)cccc4C(C)C)CC3)oc12 | 135 to 136 |
| O=C(Cn1nc2ccccc2n1)Nc1ccc(-n2nc(C(F)(F)F)cc2C2CC2)cc1 | 188 to 192 |
| O=C(CO)OC(=O)CCS | 143 to 144 |
| CCCCn1c(=O)c2c(NC)n[nH]c2n(CCOCc2ccccc2)c1=O | 214 to 216 |
| CCN(CC)CCOc1cccc2c1c1cc(Cl)ccc1n2Cc1ccccc1 | 96 to 97.5 |
| CCOC(=O)c1ccc2c(c1)C(=O)NC(C(Cl)(Cl)Cl)N2 (configuration not stated) | 243 to 244 |
| NS(=O)(=O)N1CCC(F)(F)CC1 | 111 to 112 |
| Fc1ccccc1-c1nc2cnccc2o1 | 110 to 111 |
| CCCOc1ccc(S(=O)(=O)N2CCN(CC(=O)OCC)CC2)cc1-c1nc2cc3nc[nH]c3cc2c(=O)[nH]1 | 188 to 192 |
| Cc1ccc2c(c1)N(C1CC1)CNS2(=O)=O | 157 to 158 |
| CC(=O)NCC1(N2CCN(C)CC2)CCCCC1 | 110 to 111 |
| Cc1c(F)cc(C(=O)O)cc1F | 153 |
| CC(C(=O)Oc1cc(=O)n(-c2cccc(OC(F)(F)F)c2)c2ncccc12)c1ccccc1 (configuration not stated) | 115 to 117 |

| SMILES | melting point [°C] |
| --- | --- |
| CC(C)(C)C(=O)c1ccc(C(N)=O)cc1 | 138 to 140 |
| CCOC(=O)C(C#N)C1CC(C)(C)NC(C)(C)C1 (configuration not stated) | 116 to 117 |
| CCC(=O)c1c(C)c(NC(=O)CC(C)(C)C)c(C)c2c1OCC2c1ccc(C(C)C)cc1 (configuration not stated) | 163 to 164 |
| O=C(Nc1ccc(-n2nc(C(F)(F)F)cc2C2CC2)nc1)c1cccc(F)c1F | 151 to 156 |
| CCCCCCCOc1ccc(C(N)=O)cc1 | 149 to 152 |
| CC(=O)c1c(F)cccc1N1CCN(CCCCOc2ccc3c(n2)NC(=O)CC3)CC1 | 64 |
| O=C(NC1CCCCC1)NS(=O)(=O)c1cnccc1NC1CCCCCC1 | 165 to 169 |
| CCOC(=O)c1cn(-c2cnsn2)c2c(F)c(F)c(F)cc2c1=O | 167 to 169 |
| CCC(=O)NS(=O)(=O)c1cccc(-c2cccc(-c3cc(-c4ccc(C(F)(F)F)cc4)cc(C)n3)n2)c1 | 173 |
| CCCCCCCCCCCCSc1cc(SCCCCCCCCCCCC)c([N+](=O)[O-])c(C(=O)O)c1 | 74 to 77 |
| O=C(O)c1cccc(-c2ccc3occ(-c4ccc(Cl)cc4Cl)c3c2)c1 | 271 to 272 |
| O=C(O)c1cc(-c2ccccc2C(F)(F)F)nc(C(F)(F)F)c1 | 155 to 157 |
| O=[N+]([O-])c1ccc(F)cc1CS(=O)(=O)c1ccccc1 | 169 to 171 |
| O=C1NCc2cnc(Nc3ccc(N4CCC(CCCO)CC4)cc3)nc2N1C1CCCC1 | > 230 |
| O=CN(N=Cc1cccs1)c1ccc(Cl)cc1 | 103 to 105 |
| C=CCN(CCC12CC3CC(CC(C3)C1)C2)C(=O)NCCCc1ccncc1 | 99 to 102 |
| CC(=O)OCc1c(-c2cc(Nc3cc4n(n3)CCN(C)C4)c(=O)n(C)n2)cccc1-n1ncc2cc(C(C)(C)C)cc(F)c2c1=O | 188 to 193 |
| FC(F)(F)Oc1cccc(-c2nc(-c3ccccn3)no2)c1 | 86 to 88 |
| CC(C)(C)COC1CCC(=O)N1C(=O)c1ccccc1 (configuration not stated) | 83 to 85 |
| O=C(O)Cc1c(C(=O)C2CCC2)[nH]c2cc(Cl)ccc12 | 225 to 228 |
| CC(C)(C)OC(=O)NC(Cc1ccccc1)C(O)CNCC(O)C(Cc1ccccc1)NC(=O)OC(C)(C)CCCNCc1ccccc1 (configuration not stated) | 128 to 132 |
| Cc1[nH]cnc1C(c1ccccc1)c1ccccc1 | 198 to 204 |
| O=c1oc2cccc(O)c2c(O)c1-c1ccccc1 | 256 to 265 |
| CC(=O)NN1CCN(C(=O)Cn2c(=O)sc3ccc(Cl)cc32)CC1 | 284 to 285 |
| Cc1noc(NS(=O)(=O)c2ccc(N(C)C)cc2)c1C | 152 to 154 |

| SMILES | melting point [°C] |
| --- | --- |
| O=C(COc1ccc(O)cc1)N1CCN(CC(O)Cn2c3ccccc3c3ccccc32)CC1 (configuration not stated) | 155 |
| Nc1c(C(=O)c2cccc(Cl)c2)[nH]c2cc(Cl)ccc12 | 99 to 102 |
| N#Cc1ccc2c(c1)NC(=O)C2c1ncnc2nn(C3CCCC3)cc12 (configuration not stated) | 340 to 344 |
| COc1ccc2[nH]c(C)c(CCNC(=O)C3CC3)c2c1 | 102 to 103 |
| COc1cc(C)cc(-c2nn(CC#N)cc2-c2cc(NC[C@H](C)O)nc(Cl)n2)c1 | 197 |
| O=C(Nc1ccc(-n2nc(C(F)(F)F)cc2C(F)(F)F)cc1)c1cc(F)cc(F)c1F | 169 to 170 |
| CNc1nc(-c2ccc3c(c2)CCC3)c(-c2cccnc2)s1 | 169 to 170 |
| O=C(NCCO)c1ccc(-c2cccc3cc(Cc4cccc(C(F)(F)F)c4)sc23)cc1 | 120 to 121 |
| C=CCc1cc(C=C2SC(=S)NC2=O)cc(CC=C)c1O | 157 to 160 |
| COc1ccc2ncc3c(c2c1)C(O)CCC3 (configuration not stated) | 190 |
| O=C(O)Cc1cccc(Cc2nc3c(F)c(F)ccc3s2)c1 | 154 to 155 |
| O=C(Nc1ccc(F)cc1F)Nc1cnc2cnccc2c1-c1ccccc1Cl | 213 to 216 |
| O=C1c2ccccc2C(=O)N1CC(=C(F)F)c1ccccc1 | 102 to 103 |
| Oc1ccc(-n2cnc3cc(O)cc(O)c3c2=S)cc1 | 299 to 302 |
| CN(C)C(=O)CCc1ccc2c(c1)nc(N)c1nc(CO)n(CC(C)(C)O)c12 | 228 to 230 |
| COc1cccc([C@H]2O[C@H](CC(=O)Nc3cccc(CCCC(=O)O)c3)C(=O)N(CC(C)(C)CO)c3ccc(Cl)cc32)c1OC | 119 to 122 |
| Clc1cc(Cl)c2ocnc2c1 | 98 to 99 |
| O=[N+]([O-])c1ccc(C2Nc3ccccc3-c3c([N+](=O)[O-])cnn32)cc1 (configuration not stated) | 190 to 191 |
| O=c1cnc2c([nH]1)-c1ccccc1C2=NO | > 300 |
| COC(=O)c1cc(-c2cccc(C(F)(F)F)c2)c(=O)n2c1-c1sccc1SCC2 | 190 to 191 |
| O=C(C=C1CCCCC1)C1Cc2c([nH]c3ccccc23)C(c2ccc3c(c2)OCO3)N1 (configuration not stated) | 116 to 118 |
| CC(=O)N(C)C(CCCC(=O)O)C(=O)N(C)c1c(I)cc(I)c(C(=O)O)c1I (configuration not stated) | 194 to 204 |
| CC(C)(C)OC(=O)N1CCC(CNC(=O)[C@@H]2CCCN2S(=O)(=O)c2ccc(Cl)c(CBr)c2Cl)CC1 | 80 |
| COCCOc1cc2ncc(C#N)c(C)c2cc1OC | 188 to 193 |
| O=C(O)COc1c2c3c(ccnc3c3ccccc13)CCC2 | 228 |

| SMILES | melting point [°C] |
| --- | --- |
| CONC(=O)Nc1ccc(-c2sc3c(c2CNC(C)c2ccccc2)c(=O)n(-c2ccc(F)cn2)c(=O)n3Cc2c(F)cccc2F)cc1 (configuration not stated) | 128 to 130 |
| Cc1c(C(=O)Nc2ccc(N3CCC(CCO)CC3)c(C#N)c2)cnn1-c1ccc(F)cc1 | 186 |
| CS(=O)(=O)c1ccc(-c2cc3cccccc-3c2-c2ccccc2)cc1 | 139 to 140 |
| CC(C(=O)O)c1ccc(Sc2nccs2)cc1 (configuration not stated) | 85 to 87 |
| CN(C)c1ccc([N+](=O)[O-])c(C(OC(=O)C(Cl)(Cl)Cl)c2ccccc2)c1[N+](=O)[O-] (configuration not stated) | 129 to 130 |
| O[C@H](COc1cccc2cc(-c3nnc(-c4ccccc4)o3)oc12)CN1CCC(c2ccc3ccccc3c2)CC1 | 78 to 80 |
| COc1cc(NC(=O)C(C#N)=CNc2ccc(OC)c(Br)c2)c(Cl)cc1Cl | > 250 |
| CNc1nc(NC)nc(-c2ccc(-c3ccccc3)cc2)n1 | 198 to 200 |
| CCOC(=O)Nc1cccc(-c2ccc3nnc(C)n3n2)c1 | 232 to 235 |
| Clc1cc(Cl)c(Cl)nn1 | 57 to 58 |
| CCCCCCC(C)(C)c1cc(OCc2ccccc2)c2c(c1)OC(C)(C)CC2=O | 52 to 52.5 |
| CCOC(=O)c1cc2cc(C3=NNC(=O)CC3)ccc2[nH]1 | 235 to 237 |
| COc1c(-c2cc3c(s2)CCCC3N=[N+]=[N-])ccc2c(=O)c(C(=O)O)cn(C3CC3)c12 (configuration not stated) | 134 to 136 |
| CCCCCCCCCCCCCCOC(=O)CNC(=O)OCc1ccccc1 | 57 to 58 |
| CC(=O)c1ccc(NS(C)(=O)=O)c(NC(=O)c2ccc(F)cc2F)c1 | 203 to 204 |
| CCCCNC(=O)CN1C(=O)C(NC(=O)OCc2ccccc2)N=C(c2ccccc2)c2ccccc21 (configuration not stated) | 127 to 129 |
| Cn1cc(C2=C(c3cn(-c4ccccc4)c4ccccc34)C(=O)NC2=O)c2ccccc21 | 135 to 137 |
| COC(=O)CNC(=O)CC(O)CBr (configuration not stated) | 60 to 61 |
| CCN(CC)C(=O)NC1CC2c3cccc4[nH]c(C#Cc5cccs5)c(c34)CC2N(C)C1 (configuration not stated) | 252 to 256 |
| O=C(O)C1CCc2nc3cc(Cl)ccc3c(Cl)c2C1 (configuration not stated) | > 250 |
| CCOC(=O)COCc1nnc(S)s1 | 80 to 82 |
| CCC(O)(CC)c1ccc(-c2cc(-c3c[nH]nc3-c3cccc(C)n3)ccc2F)nc1 | 94 to 95 |
